{"source": "patent US20170144969A1", "about": "“ANT[…], METHOD FOR PRODUCTION AND USES THEREOF” (priority 2014, published 2017)", "key": {"[1]": {"assay": "Antibacterial efficacy (MIC) after incubation in 50% human plasma", "conditions": "for MIC / activity: up to 24 h incubation in 50% human plasma"}, "[2]": {"tested_on": "MRSA (ATCC 33591)", "assay": "Minimum Inhibitory Concentration, micro-dilution broth", "type": "cell-based, methicillin-resistant S. aureus", "conditions": "24 h, 37° C."}, "[3]": {"tested_on": "Klebsiella pneumoniae (ATCC 700603)", "assay": "Minimum Inhibitory Concentration, micro-dilution broth", "type": "cell-based", "conditions": "24 h, 37° C."}, "[4]": {"tested_on": "vancomycin resistant Enterococcus faecium (VRE) (ATCC 51559)", "assay": "Minimum Inhibitory Concentration, micro-dilution broth", "type": "cell-based", "conditions": "24 h, 37° C."}, "[5]": {"tested_on": "E. coli (MTCC 443)", "assay": "Minimum Inhibitory Concentration, micro-dilution broth", "type": "cell-based", "conditions": "24 h, 37° C."}, "[6]": {"tested_on": "human Red Blood Cells", "assay": "Haemolytic activity", "conditions": "Table 3; human RBCs, 1 h at 37° C."}, "[7]": {"tested_on": "Enterococcus faecium (ATCC 19634)", "assay": "Minimum Inhibitory Concentration, micro-dilution broth", "type": "cell-based"}, "[8]": {"tested_on": "stationary-phase S. aureus", "assay": "Time-kill kinetics against stationary phase bacteria", "type": "cell-based", "conditions": "within 1 h of exposure, 50 μg/mL"}, "[9]": {"tested_on": "Ebola virus (strain ME718)", "type": "cell-based"}, "[10]": {"tested_on": "S. aureus (MTCC 737)", "assay": "Minimum Inhibitory Concentration, micro-dilution broth", "type": "cell-based, Staphylococcus aureus", "conditions": "24 h, 37° C."}, "[11]": {"tested_on": "S. aureus biofilms", "assay": "Bacterial biofilm disruption (pre-formed biofilm)", "type": "cell-based", "conditions": "for reduction of cell viability in pre-existing biofilms: 24 h"}, "[12]": {"tested_on": "Ebola virus (strain ME718)", "type": "cell-based", "remark": "listed apart in the source"}, "[13]": {"tested_on": "Ebola virus", "type": "cell-based"}, "[14]": {"tested_on": "S. aureus", "assay": "Resistance study, serial passage at MIC/2", "type": "cell-based", "conditions": "20 passages"}, "[15]": {"tested_on": "Ebola virus", "type": "cell-based", "remark": "listed apart in the source"}, "[16]": {"tested_on": "RAW (macrophage) cell line", "assay": "Cytotoxicity, MTT assay"}, "[17]": {"tested_on": "E. coli", "assay": "Resistance study, serial passage at MIC/2", "type": "cell-based", "conditions": "30 passages"}, "[18]": {"tested_on": "HeLa cell line", "assay": "Cytotoxicity, MTT assay"}, "[19]": {"tested_on": "Ebola virus", "type": "cell-based", "remark": "listed apart in the source"}}, "note": "Several values for one entry are separate records, joined by “and”; a condition that tells them apart may be missing. Identical values can stand only once. Like-named read-outs stand apart in the source and are kept apart here."}
{"molecule": "CCCCCCCCCCCC(=O)N(CCCNC(=O)[C@@H](N)Cc1ccccc1)CCCNC(=O)[C@@H](N)Cc1ccccc1.O=C(O)C(F)(F)F.O=C(O)C(F)(F)F", "note": "[Compound 2, N,N-bis-[{3-(^LPhe)amino}propyl]dodecanamide bis(trifluoroacetate)]", "values": [{"measurement": "MIC", "setting": "[1]; after 2 h incubation with 50% plasma", "value": 10.7, "unit": "µM"}, {"measurement": "MIC", "setting": "[1]; after 4 h incubation with 50% plasma", "value": 22, "unit": "µM"}, {"measurement": "MIC", "setting": "[1]; before incubation with 50% human plasma", "value": 5.4, "unit": "µM"}, {"measurement": "MIC / activity", "setting": "[1]", "value": "remained same"}, {"measurement": "Minimum Inhibitory Concentration MRSA", "setting": "[2]", "value": 4, "unit": "µM"}, {"measurement": "Minimum Inhibitory Concentration K. pneumonie", "setting": "[3]", "value": 9.7, "unit": "µM"}, {"measurement": "MIC", "setting": "[4]", "value": 2.7, "unit": "µM"}, {"measurement": "MIC", "setting": "[5]", "value": 12, "unit": "µM"}, {"measurement": "HC50", "setting": "[6]", "value": 205}]}
{"molecule": "CCCCCCCCCCCC(=O)N(CCCNC(=O)[C@H](N)Cc1ccccc1)CCCNC(=O)[C@H](N)Cc1ccccc1", "note": "[Compound 6, N,N-bis-[{3-(^DPhe)amino}propyl]dodecanamide bis(trifluoroacetate)]", "values": [{"measurement": "MIC", "setting": "[7]; 24 h, 37° C., read-out: Minimum Inhibitory Concentration E. faceium", "value": 3.3, "unit": "µM"}, {"measurement": "MIC", "setting": "[7]; Enterococcus faecium, ATCC19634, 24 h, read-out: Minimum Inhibitory Concentration E. faceium, 24 h, 37° C.", "value": "2 to 5", "unit": "µM"}, {"measurement": "stability in plasma", "setting": "[1]; human plasma", "value": "stable in plasma"}, {"measurement": "MIC / activity", "setting": "[1]", "value": "did not show any loss of activity"}, {"measurement": "MIC", "setting": "[4]", "value": 2.9, "unit": "µM"}, {"measurement": "MIC", "setting": "[5]; Escherichia coli, MTCC443", "value": 12, "unit": "µM"}]}
{"molecule": "CCCCCCCCCCCCCC(=O)N(CCCNC(=O)[C@H](N)CCCCN)CCCNC(=O)[C@H](N)CCCCN.O=C(O)C(F)(F)F.O=C(O)C(F)(F)F", "note": "[Compound 16, N,N-bis-[{3-(^DLys)amino}propyl]tetradecanamide bis(trifluoroacetate)]", "values": [{"measurement": "reductions in cell viability", "setting": "[8]", "value": "more than 3 Log CFU/mL"}, {"measurement": "Ct value Ave", "setting": "[9]", "value": "33.65 and 35.29"}, {"measurement": "Drug - no drug Ct change", "setting": "[9]", "value": "3.76 and 5.40"}, {"measurement": "MIC", "setting": "[10]", "value": 5.7, "unit": "µM"}, {"measurement": "reduction of cell viability in pre-existing biofilms", "setting": "[11]; 4×MIC", "value": "5 Log (CFU/mL)"}, {"measurement": "biofilm eradication, confocal microscopy", "setting": "[11]; 10×MIC", "value": "significant biofilm eradication"}, {"measurement": "pre-formed biofilm mass, crystal violet staining", "setting": "[11]; 10×MIC", "value": "enormous reduction in pre-formed biofilm mass"}, {"measurement": "reduction of cell viability in pre-existing biofilms", "setting": "[11]; 10×MIC", "value": "6 Log (CFU/mL)"}, {"measurement": "reduction of cell viability in pre-existing biofilms", "setting": "[11]; at its MIC concentration", "value": "more than 4 Log CFU/mL"}, {"measurement": "Ct value Ave", "setting": "[12]", "value": "34.3 and 32.9"}, {"measurement": "Drug - no drug Ct change", "setting": "[12]", "value": "7.02 and 5.64"}, {"measurement": "rank of Ct value among 20 compounds", "setting": "[13]", "value": "one of the top two Ct values"}, {"measurement": "fold increase in the MIC", "setting": "[14]", "value": "no change in the MIC"}, {"measurement": "MIC", "setting": "[4]", "value": 2.8, "unit": "µM"}, {"measurement": "rank of Ct value among 20 compounds", "setting": "[15]", "value": "one of the top two Ct values"}, {"measurement": "EC50 (50% cells viability)", "setting": "[16]; MTT", "value": "> 70", "unit": "µg/mL"}, {"measurement": "toxicity", "setting": "[16]; at its MIC", "value": "did not show any toxicity"}, {"measurement": "fold increase in the MIC", "setting": "[17]", "value": "no change in the MIC"}, {"measurement": "EC50 (50% cells viability)", "setting": "[18]; MTT", "value": "> 70", "unit": "µg/mL"}, {"measurement": "toxicity", "setting": "[18]; at its MIC", "value": "did not show any toxicity"}, {"measurement": "Ct value, replicate wells 1-3", "setting": "[19]", "value": "25.96 and 27.13 and 26.42 and 26.03 and 24.81 and 25.73 and 26.99 and 26.76 and 26.30 and 26.31 and 26.49 and 26.53 and 26.04 and 26.63 and 16.70 and 18.76 and 16.93 and 24.42 and 24.33 and 24.32 and 21.29 and 20.72 and 23.10 and 19.95 and 20.87 and 20.22 and 17.82 and 20.49 and 19.45"}, {"measurement": "amount of viral genome present", "setting": "[19]", "value": "reduced the amount of viral genome present"}, {"measurement": "MIC", "setting": "[5]", "value": 5.4, "unit": "µM"}]}
{"molecule": "CCn1cc(C(=O)O)c(=O)c2cc(F)c(N3CCNCC3)cc21", "note": "[norfloxacin, reference compound]", "values": [{"measurement": "reduction of cell viability in pre-existing biofilms", "setting": "[11]; 64×MIC", "value": "none of the antibiotics showed significant reduction"}, {"measurement": "fold increase in the MIC", "setting": "[14]", "value": "around 800 fold"}]}
{"molecule": "colistin [reference compound]", "values": [{"measurement": "fold increase in the MIC", "setting": "[17]", "value": "~250", "unit": "fold"}]}
